According to ChEMBL document CHEMBL1144190, “Structure-activity relationship study of a novel necroptosis inhibitor, necrostatin-7” (Bioorg Med Chem Lett, 2008):
Calls of active or inactive are those of the source. The rule behind the calls is not given here.

Molecular target: T1, Receptor-interacting serine/threonine-protein kinase 1 (Homo sapiens) (UniProt Q13546)
T1 sequence (whole entry): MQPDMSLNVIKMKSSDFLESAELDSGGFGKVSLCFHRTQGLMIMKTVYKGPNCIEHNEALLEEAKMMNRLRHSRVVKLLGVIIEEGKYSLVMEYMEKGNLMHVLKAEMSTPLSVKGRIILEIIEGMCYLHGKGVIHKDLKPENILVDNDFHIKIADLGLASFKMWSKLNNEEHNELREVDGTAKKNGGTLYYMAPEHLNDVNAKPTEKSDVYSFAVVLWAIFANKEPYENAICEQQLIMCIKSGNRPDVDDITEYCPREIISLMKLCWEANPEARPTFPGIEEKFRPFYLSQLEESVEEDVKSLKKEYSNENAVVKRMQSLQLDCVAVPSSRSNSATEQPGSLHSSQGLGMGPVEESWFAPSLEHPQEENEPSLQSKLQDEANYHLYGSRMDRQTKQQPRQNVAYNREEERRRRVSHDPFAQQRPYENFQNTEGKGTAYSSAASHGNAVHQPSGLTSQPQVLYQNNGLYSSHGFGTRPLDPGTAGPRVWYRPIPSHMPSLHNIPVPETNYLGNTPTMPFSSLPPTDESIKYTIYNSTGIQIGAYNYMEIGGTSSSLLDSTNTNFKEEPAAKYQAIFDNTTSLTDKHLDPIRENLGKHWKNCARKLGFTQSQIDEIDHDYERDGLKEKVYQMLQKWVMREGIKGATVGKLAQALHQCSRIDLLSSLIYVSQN
Assay: Inhibition of GST-tagged human recombinant RIP1 kinase expressed in Sf9 cells

Structure (SMILES) | Activity
N=C1S/C(=C\c2c[nH]nc2-c2ccc(S(=O)(=O)c3ccccc3)cc2)C(=O)N1c1nccs1 | inactive

System: Jurkat
Assay: Inhibition of TNF-alpha-induced necroptosis in FADD-deficient human Jurkat cells
Type: functional, cell-based

Structure (SMILES) | EC50 | Activity
N=C1S/C(=C\c2c[nH]nc2-c2ccc(F)c(N3CCOCC3)c2)C(=O)N1c1nccs1 | 2.9 µM | 
N=C1S/C(=C\c2c[nH]nc2-c2cccc(F)c2)C(=O)N1c1nncs1 |  | inactive
N=C1S/C(=C\c2c[nH]nc2-c2ccccc2)C(=O)N1c1nccs1 | 40.6 µM | 
N=C1S/C(=C\c2cc(Cc3ccccc3)[nH]c2-c2ccc(F)cc2)C(=O)N1c1nccs1 |  | inactive
N=C1S/C(=C\c2c[nH]nc2-c2ccc(N3CCCCC3)cc2)C(=O)N1c1nccs1 | 6.36 µM | 
COc1ccc(-c2ccc(-c3n[nH]cc3/C=C3\SC(=N)N(c4nccs4)C3=O)cc2)cc1 | 2.59 µM | 
N=C1S/C(=C\c2c[nH]nc2-c2ccc(Cl)cc2)C(=O)N1c1nccs1 | 15.6 µM | 
N=C1S/C(=C\c2c[nH]nc2-c2cccc(F)c2)C(=O)N1c1nccs1 |  | inactive
N=C1S/C(=C\c2conc2-c2ccc(F)cc2)C(=O)N1c1nccs1 |  | inactive
N=C1S/C(=C\c2conc2-c2ccc([N+](=O)[O-])cc2)C(=O)N1c1nccs1 |  | inactive
Cc1ccc(-c2ccc(-c3n[nH]cc3/C=C3\SC(=N)N(c4nccs4)C3=O)cc2)cc1 | 4.38 µM | 
N=C1S/C(=C\c2c[nH]nc2-c2ccc(S(=O)(=O)c3ccccc3)cc2)C(=O)N1c1nccs1 | 1.78 µM | 
COc1ccccc1-c1ccc(-c2n[nH]cc2/C=C2\SC(=N)N(c3nccs3)C2=O)cc1 | 2.41 µM | 
COc1ccc(-c2n[nH]cc2/C=C2\SC(=N)N(c3nccs3)C2=O)cc1 | 14.9 µM | 
N=C1S/C(=C\c2c[nH]nc2-c2ccc(C(=O)N3CCCCC3)cc2)C(=O)N1c1nccs1 | 2.09 µM | 
N=C1S/C(=C\c2c[nH]nc2-c2ccc(C(=O)N3CCOCC3)cc2)C(=O)N1c1nccs1 | 7.19 µM | 
N=C1S/C(=C\c2c[nH]nc2-c2ccc3c(c2)OCO3)C(=O)N1c1nccs1 | 34.8 µM | 
N=C1S/C(=C\c2c[nH]nc2-c2ccc(-c3cccc(F)c3)cc2)C(=O)N1c1nccs1 | 48 µM | 
N=C1S/C(=C\c2cc(CC(N)=O)[nH]c2-c2ccc(F)cc2)C(=O)N1c1nccs1 |  | inactive
N=C1S/C(=C\c2c[nH]nc2-c2ccc(Br)cc2)C(=O)N1c1nccs1 | 34.5 µM | 
N=C1S/C(=C\c2c[nH]nc2-c2ccc(O)cc2)C(=O)N1c1nccs1 | 32.7 µM | 
N=C1S/C(=C\c2conc2-c2ccc(Cl)cc2)C(=O)N1c1nccs1 |  | inactive
N=C1S/C(=C\c2c[nH]nc2-c2ccc(F)c(F)c2)C(=O)N1c1nccs1 | 6.32 µM | 

Structure (SMILES) | EC50 | Activity
N=C1S/C(=C\c2c[nH]nc2-c2ccc(F)cc2)C(=O)N1c1nncs1 |  | inactive
N=C1S/C(=C\c2c[nH]nc2-c2ccc(-c3ccc(Cl)cc3)cc2)C(=O)N1c1nccs1 | > 100 µM | 
N=C1S/C(=C\c2c[nH]nc2-c2ccc(N3CCSCC3)cc2)C(=O)N1c1nccs1 | 3.3 µM | 
Cc1cc(/C=C2\SC(=N)N(c3nccs3)C2=O)c(-c2ccc(F)cc2)[nH]1 |  | inactive
Cc1csc(N2C(=N)S/C(=C\c3c[nH]nc3-c3ccc(F)cc3)C2=O)n1 | 5.25 µM | 
Cc1cnc(N2C(=N)S/C(=C\c3c[nH]nc3-c3ccc(F)cc3)C2=O)s1 | 23.1 µM | 
N=C1S/C(=C\c2c[nH]nc2-c2ccccc2F)C(=O)N1c1nncs1 |  | inactive
N=C1S/C(=C\c2c[nH]nc2-c2ccc([N+](=O)[O-])cc2)C(=O)N1c1nccs1 | 23 µM | 
N=C1S/C(=C\c2cc(-c3ccccc3)[nH]c2-c2ccc(F)cc2)C(=O)N1c1nccs1 |  | inactive
COc1ccc(-c2n[nH]nc2/C=C2\SC(=N)N(c3nccs3)C2=O)cc1 |  | inactive
N=C1S/C(=C\c2c[nH]nc2-c2ccc(N3CCOCC3)cc2)C(=O)N1c1nccs1 | 2.93 µM | 
N=C1S/C(=C\c2n[nH]nc2-c2ccc(F)cc2)C(=O)N1c1nccs1 |  | inactive
N=C1S/C(=C\c2c[nH]nc2-c2ccccc2F)C(=O)N1c1nccs1 |  | inactive
N=C1S/C(=C\c2c[nH]nc2-c2ccc(-c3ccc(F)cc3)cc2)C(=O)N1c1nccs1 | 3.87 µM | 
N=C1S/C(=C\c2n[nH]nc2-c2ccccc2)C(=O)N1c1nccs1 |  | inactive
N=C1S/C(=C\c2c[nH]nc2-c2ccc(N3CCCC3)cc2)C(=O)N1c1nccs1 | 9.53 µM | 
N=C1S/C(=C\c2c[nH]nc2-c2ccc(F)cc2)C(=O)N1c1nccs1 | 10.6 µM | 
Cc1ccc(-c2n[nH]cc2/C=C2\SC(=N)N(c3nccs3)C2=O)cc1 | 7.77 µM | 
N=C1S/C(=C\c2n[nH]nc2-c2ccc(Cl)cc2)C(=O)N1c1nccs1 |  | inactive
N=C1S/C(=C\c2c[nH]nc2-c2ccccc2)C(=O)N1c1nncs1 |  | inactive
Cc1ccc(-c2nocc2/C=C2\SC(=N)N(c3nccs3)C2=O)cc1 |  | inactive
N=C1S/C(=C\c2c[nH]nc2-c2ccc(-c3ccccc3)cc2)C(=O)N1c1nccs1 | 1.29 µM | 
